Measurements from patent US10562864B2, “Chemical modulators of immune checkpoints and therapeutic use” (Duke University, priority 2015, dated 2020).
Entries after “also recorded” stand apart in the source; their conditions may differ.

Assays:
PD-1 = assay: Western blot analysis of PD-1 protein level in 4T1 cells stably expressing PD-1; assay type: cell-based, murine; parameters: key to Decrease in PD1 protein level by western blot at 24 h at 5 μM: † 3+ Scale with + least and +++ most; † 3+ Scale with + least and +++ most; † 3+ Scale with + least and +++ most; key to Decrease in PD1 protein level by western blot at 4 days at 3 μM: ‡ 3+ Scale with + least and +++ most; ‡ 3+ Scale with + least and +++ most; ‡ 3+ Scale with + least and +++ most; conditions: for PD-1 protein levels by western blot after 4 days / Decrease in PD1 protein level by western blot at 24 h at 5 μM / Decrease in PD1 protein level by western blot at 4 days at 3 μM: 4T1-PD1 cells; for PD-1 protein levels by western blot after 4 days: FIG. 13; for PD-1 protein levels by western blot at 24 hours: 4T1 cells stably expressing PD-1, FIG. 9, 10, 12
Procedure: Murine breast cancer cells were grown in DMEM medium supplemented with 10% FBS and penicillin and streptomycin antibiotics at 37° C. in 5% CO2.
4T1 Murine breast cancer cells stably expressing PD1 were seeded in 12-well plates (30 k cells/well) and incubated overnight. […] Cells were lysed with SDS sample buffer and lysates were subjected to western blot analysis
4T1-PD1 cells were seeded in 12-well plates (100 k cells/well) overnight. On the next day, compounds were added and the cells incubated for 4 days. The cells were then lysed in SDS sample buffer and lysates were subjected to western blot analysis

PD1-GFP [1] = biological target: T1, PD1-GFP (Homo sapiens, UniProt Q15116); assay: Internalization assay (PD1-GFP), confocal imaging of PD1-GFP stable U2OS cells; assay type: cell-based; parameters: Internalized PD1-GFP punctate; 6 hr (10 μM): key to the marks not given beside the values; conditions: 37° C.
T1 construct: expressed in transfected cells; host or cells: U2OS
T1 sequence (Q15116 25-288): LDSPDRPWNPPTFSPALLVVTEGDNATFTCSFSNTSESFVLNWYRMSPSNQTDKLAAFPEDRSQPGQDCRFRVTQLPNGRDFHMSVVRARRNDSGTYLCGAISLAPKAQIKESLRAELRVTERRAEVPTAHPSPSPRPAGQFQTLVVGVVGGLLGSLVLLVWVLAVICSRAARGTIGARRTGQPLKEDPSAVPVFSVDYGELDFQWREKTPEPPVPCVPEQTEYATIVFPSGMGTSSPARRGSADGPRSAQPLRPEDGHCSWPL
Procedure: U2OS cells were transfected with PD1-GFP and stable receptor-expressing cells were selected using 0.5 mg/ml Geneticin in the culture medium. […] The plates were incubated overnight at 37° C. in 5% CO2. The following day, chemical compounds (10 mM in DMSO) were diluted 1:200 in culture medium, 6.25 μL of which was then added to each well of cells to produce a 1:1000 dilution overall and final compound concentration of 10 μM per well. The cells were incubated with compound for 6 h at 37° C. prior to fixation in PBS containing 0.5% paraformaldehyde for 30 min at room temperature. The wells were then washed with PBS three times and stored at 4° C. The cells were imaged using a Zeiss LSM-510 confocal microscope.

PD1-GFP [2] = biological target: T1, PD1-GFP; assay: as above; assay type: cell-based; conditions: 0.25 μM to 10 μM, 6 h, see FIG. 6/7
phospho-Erk1/2 = assay: Western blot analysis of phospho-Erk1/2 levels in 4T1-PD1 cells; assay type: cell-based, murine; conditions: 24 hours, FIG. 11, 12
Procedure: 4T1-PD1 cells (30K cells/per well) were seeded in 12-well plates overnight. On the following day, the compounds were added and the cells were incubated for 24 hours. The cells were then lysed in SDS sample buffer and analyzed by western blots.
4T1-PD1 cells (30K cells/per well) were seeded in 12-well plates overnight. On the following day, the compounds were added and the cells were incubated for 24 hours. The cells were then lysed in SDS sample buffer and analyzed by western blot.
4T1 Murine breast cancer cells stably expressing PD1 were seeded in 12-well plates (30 k cells/well) and incubated overnight. On the next day, compounds were added to produce the final concentration desired and the cells were incubated for […]. Cells were lysed with SDS sample buffer and lysates were subjected to western blot analysis

CTLA4-GFP = biological target: T2, CTLA4-GFP (Homo sapiens, UniProt P16410); assay: CTLA4-GFP internalization, confocal imaging of CTLA4-GFP stable U2OS cells; assay type: cell-based; parameters: key to Internalized CTLA4-GFP punctate; 6 hr (10 μM): **4+ Scale with + least and ++++ most; **4+ Scale with + least and ++++ most; **4+ Scale with + least and ++++ most; **4+ Scale with + least and ++++ most
T2 construct: expressed in transfected cells; host or cells: U2OS
T2 sequence (P16410 36-223): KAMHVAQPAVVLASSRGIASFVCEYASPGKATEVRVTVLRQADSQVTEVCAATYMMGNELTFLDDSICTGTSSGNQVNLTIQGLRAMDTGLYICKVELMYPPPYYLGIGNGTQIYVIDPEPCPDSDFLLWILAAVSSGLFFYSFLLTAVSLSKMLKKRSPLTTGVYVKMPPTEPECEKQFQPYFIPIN

PDL1-GFP = biological target: T3, PDL1-GFP (Homo sapiens, UniProt Q9NZQ7); assay: Confocal imaging of PDL1-GFP stable U2OS cells; assay type: cell-based; conditions: 10 μM, 6 h, 37° C., FIG. 2
T3 construct: expressed in transfected cells; host or cells: U2OS
T3 sequence (Q9NZQ7 19-290): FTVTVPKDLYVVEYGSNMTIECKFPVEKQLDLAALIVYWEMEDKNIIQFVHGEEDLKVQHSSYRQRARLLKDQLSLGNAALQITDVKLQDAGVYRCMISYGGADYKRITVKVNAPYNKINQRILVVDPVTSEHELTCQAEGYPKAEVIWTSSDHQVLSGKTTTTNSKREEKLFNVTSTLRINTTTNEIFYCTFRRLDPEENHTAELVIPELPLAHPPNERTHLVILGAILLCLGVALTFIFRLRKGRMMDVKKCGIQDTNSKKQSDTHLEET

Structure (SMILES)	Internalized PD1-GFP punctate; 6 hr (10 μM) (PD1-GFP [1])	Decrease in PD1 protein level by western blot at 24 h at 5 μM (PD-1)	PD-1 protein levels by western blot at 24 hours (PD-1)	also measured
CCCCc1oc2ccccc2c1C(=O)c1cc(I)c(OCCN(CC)CC)c(I)c1 [amiodarone]	–	–	–	PD-1 protein levels by western blot after 4 days (PD-1): lower PD-1 protein levels
CCN(CC)CCCC(C)Nc1ccnc2cc(Cl)ccc12 (centres unmarked) [Compound 19]	+++	–	–	–
Cc1cc(/C=C/c2ccc3cc(N(C)C)ccc3[n+]2C)c(C)n1-c1ccccc1 [Compound 18]	++++	–	–	Decrease in PD1 protein level by western blot at 4 days at 3 μM (PD-1): +++
CC(=O)Oc1ccccc1C(=O)Nc1ncc([N+](=O)[O-])s1 [Compound 12, nitazoxanide]	++	+	lower PD-1 and phopho-Erk1/2 protein levels	phospho-Erk1/2 levels by western blot (phospho-Erk1/2): lower PD-1 and phopho-Erk1/2 protein levels
O=C(Nc1ccc([N+](=O)[O-])cc1Cl)c1cc(Cl)ccc1O [Compound 10, niclosamide]	++++	+++	decreases PD-1 protein levels; also recorded: lower PD-1 protein levels	EC50 (PD1-GFP [2]): 3 µM; phospho-Erk1/2 levels by western blot (phospho-Erk1/2): lower phospho-Erk1/2 levels; PD1-GFP internalization in confocal images (PD1-GFP [1]; 10 μM, 6 h, FIG. 1): internalized PD1-GFP vesicles; PD-1 protein levels by western blot at 6 hours (PD-1; 6 hrs, 4T1 cells stably expressing PD-1, FIG. 8): decreases PD-1 protein levels; CTLA4-GFP vesicles in confocal images (CTLA4-GFP; 10 μM, 6 h, 37° C., FIG. 3): aggregated CTLA4-GFP vesicles; Internalized CTLA4-GFP punctate; 6 hr (10 μM) (CTLA4-GFP; 6 hr): +++; PDL1-GFP vesicles in confocal images (PDL1-GFP): aggregated PDL1-GFP vesicles
CC(NCCC(c1ccccc1)c1ccccc1)c1ccccc1 (centres unmarked) [Compound 15]	++	–	–	–
COc1ccc2cc1Oc1ccc(cc1)C[C@H]1c3cc(c(OC)cc3CCN1C)Oc1c(OC)c(OC)cc3c1[C@H](C2)N(C)CC3 [Compound 17]	+++	–	–	Decrease in PD1 protein level by western blot at 4 days at 3 μM (PD-1): ++
CC[C@@H](C(=O)[C@@H](C)[C@@H](O)[C@H](C)CCc1ccc(C)c(O)c1C(=O)O)[C@H]1O[C@](CC)([C@H]2CC[C@](O)(CC)[C@H](C)O2)C[C@@H]1C [Compound 14, lasalocid]	++++	++	lower PD-1 protein levels	phospho-Erk1/2 levels by western blot (phospho-Erk1/2): lower phospho-Erk1/2 levels
O=[N+]([O-])c1ccc2[nH]c(-c3cc(Cl)ccc3O)nc2c1 [Compound 2, 4-Chloro-2-(5-nitro-1H-benzo[d]imidazol-2-yl)phenol]	++++	++	lower PD-1 and phopho-Erk1/2 protein levels	phospho-Erk1/2 levels by western blot (phospho-Erk1/2): lower PD-1 and phopho-Erk1/2 protein levels; Decrease in PD1 protein level by western blot at 4 days at 3 μM (PD-1): +++; PD-1 protein levels by western blot after 4 days (PD-1): lower PD-1 protein levels
O=[N+]([O-])c1ccc2[nH]c(-c3cc(F)ccc3O)nc2c1 [Compound 3, 4-fluoro-2-(5-nitro-1H-benzo[d]imidazol-2-yl)phenol]	–	++	lower PD-1 and phopho-Erk1/2 protein levels	phospho-Erk1/2 levels by western blot (phospho-Erk1/2): lower PD-1 and phopho-Erk1/2 protein levels; Decrease in PD1 protein level by western blot at 4 days at 3 μM (PD-1): +++; PD-1 protein levels by western blot after 4 days (PD-1): lower PD-1 protein levels
CCN(CC)CCCC(C)Nc1c2ccc(Cl)cc2nc2ccc(OC)cc12 (centres unmarked) [Compound 16]	+++	–	–	–
O=C(Nc1cc(Cl)cc(Cl)c1)c1cc(Cl)ccc1O [Compound 6, 5-chloro-N-(3,5-dichlorophenyl)-2-hydroxybenzamide]	++++	–	–	–
Cc1ccc(S(=O)(=O)Nc2ccc(Br)cc2C(=O)Nc2ccc(C(F)(F)F)cc2)cc1 [Compound 8, 5-Bromo-2-((4-methylphenyl)sulfonamido)-N-(4-(trifluoromethyl)phenyl)benzamide]	++++	–	–	–

Continued, in another order:

Internalized PD1-GFP punctate; 6 hr (10 μM) (PD1-GFP [1])	Structure (SMILES)	Decrease in PD1 protein level by western blot at 24 h at 5 μM (PD-1)	PD-1 protein levels by western blot at 24 hours (PD-1)	also measured
++++	CCCCCCCC(=O)Oc1ccc(Cl)cc1C(=O)Nc1ccc([N+](=O)[O-])cc1Cl [Compound 7, 4-Chloro-2-((2-chloro-4-nitrophenyl)carbamoyl)phenyl octanoate]	++	lower PD-1 protein levels	EC50 (PD1-GFP [2]): 3 µM
+++	CCCCc1oc2ccccc2c1C(=O)c1cc(I)c(OCCN(CC)CC)c(I)c1 [Compound 13]	–	–	Decrease in PD1 protein level by western blot at 4 days at 3 μM (PD-1): ++
++++	O=C(Nc1ccc(C(F)(F)F)cc1)c1cc(Cl)cc2[nH]c(C(F)(F)F)nc12 [Compound 9, 6-Chloro-2-(trifluoromethyl)-N-(4-(trifluoromethyl)phenyl)-1H-benzo[d]imidazole-4-carboxamide]	–	–	–
++	O=C(Nc1ncc([N+](=O)[O-])s1)c1ccccc1O [Compound 11]	–	–	–
++	O=S(=O)(Nc1ccc(C(F)(F)F)cc1Cl)c1cc(Cl)ccc1O [Compound 4, 5-Chloro-N-(2-chloro-4-(trifluoromethyl)phenyl)-2-hydroxybenzenesulfonamide]	–	–	–
++++	O=C(Nc1ccc(C(F)(F)F)cc1Cl)c1cc(Cl)ccc1O [Compound 5, 5-chloro-N-(2-chloro-4-(trifluoromethyl)phenyl)-2-hydroxybenzamide]	–	–	–
++++	O=[N+]([O-])c1ccc(-c2nnc(-c3cc(Cl)ccc3O)[nH]2)cc1 [Compound 1, 4-Chloro-2-(5-(4-nitrophenyl)-4H-1,2,4-triazol-3-yl)phenol]	–	–	–
